Reference: the NIST ThermoML archive (doi:10.1021/je8001255)

Assay: an = ratio of the nth substance listed, in mol/kg
Conditions: 100 kPa, Liquid; for electrical conductivity: Alternating current cell with electrodes

O=S(=O)([O-])[O-].[Cu+2] [copper sulfate] + O
Conditions | electrical conductivity, 278.15 K [S/m] | electrical conductivity, 283.15 K [S/m] | electrical conductivity, 288.15 K [S/m] | electrical conductivity, 293.15 K [S/m] | electrical conductivity, 298.15 K [S/m] | electrical conductivity, 303.15 K [S/m] | electrical conductivity, 308.15 K [S/m] | mass density, 298.15 K [kg/m3]
a1 = 0.00666 | 0.0666 | 0.0763 | 0.0863 | 0.0965 | 0.107 | 0.117 | 0.128 | 998.16
a1 = 0.02534 | 0.196 | 0.224 | 0.253 | 0.282 | 0.311 | 0.34 | 0.369 | 1001.26
a1 = 0.04942 | 0.319 | 0.365 | 0.412 | 0.459 | 0.506 | 0.553 | 0.598 | 1005.23
a1 = 0.09691 | 0.543 | 0.621 | 0.7 | 0.78 | 0.86 | 0.938 | 1.01 | 1013.09
a1 = 0.2535 | 1.17 | 1.34 | 1.51 | 1.68 | 1.85 | 2.02 | 2.19 | 1039.39
a1 = 0.3778 | 1.61 | 1.84 | 2.07 | 2.31 | 2.54 | 2.78 | 3 | 1060.88
a1 = 0.4881 | 1.95 | 2.23 | 2.52 | 2.81 | 3.1 | 3.39 | 3.68 | 1080.51
a1 = 0.6806 | 2.49 | 2.85 | 3.23 | 3.6 | 3.99 | 4.37 | 4.74 | 1115.98
a1 = 0.7935 | 2.75 | 3.15 | 3.57 | 4 | 4.43 | 4.87 | 5.29 | 1137.68
a1 = 0.9197 | 3 | 3.45 | 3.92 | 4.4 | 4.88 | 5.37 | 5.85 | 1162.72
a1 = 1.037 | 3.22 | 3.7 | 4.21 | 4.73 | 5.25 | 5.79 | 6.32 | 1186.79
a1 = 1.138 | 3.34 | 3.85 | 4.39 | 4.94 | 5.51 | 6.08 | 6.66 | 1208.14
a1 = 1.198 | 3.4 | 3.93 | 4.48 | 5.06 | 5.64 | 6.24 | 6.83 | 1220.58

O=S(=O)([O-])[O-].[Ni+2] [nickel monosulfate] + O
Conditions | electrical conductivity, 278.15 K [S/m] | electrical conductivity, 283.15 K [S/m] | electrical conductivity, 288.15 K [S/m] | electrical conductivity, 293.15 K [S/m] | electrical conductivity, 298.15 K [S/m] | electrical conductivity, 303.15 K [S/m] | electrical conductivity, 308.15 K [S/m] | mass density, 298.15 K [kg/m3]
a1 = 0.006 | 0.0606 | 0.0696 | 0.079 | 0.0886 | 0.0984 | 0.108 | 0.119 | 998.02
a1 = 0.02566 | 0.192 | 0.221 | 0.25 | 0.28 | 0.31 | 0.341 | 0.372 | 1001.23
a1 = 0.04922 | 0.321 | 0.368 | 0.417 | 0.467 | 0.517 | 0.568 | 0.618 | 1005.09
a1 = 0.122 | 0.656 | 0.753 | 0.852 | 0.954 | 1.06 | 1.16 | 1.26 | 1017.09
a1 = 0.25 | 1.18 | 1.36 | 1.54 | 1.72 | 1.91 | 2.09 | 2.28 | 1038.54
a1 = 0.3674 | 1.55 | 1.78 | 2.01 | 2.25 | 2.5 | 2.75 | 2.99 | 1058.67
a1 = 0.4988 | 1.94 | 2.23 | 2.52 | 2.83 | 3.14 | 3.45 | 3.76 | 1081.77
a1 = 0.68 | 2.39 | 2.75 | 3.12 | 3.51 | 3.9 | 4.29 | 4.63 | 1114.8
a1 = 0.7969 | 2.64 | 3.04 | 3.45 | 3.88 | 4.31 | 4.75 | 5.19 | 1136.9
a1 = 1.022 | 2.99 | 3.46 | 3.94 | 4.44 | 4.95 | 5.47 | 5.99 | 1181.4
a1 = 1.156 | 3.13 | 3.62 | 4.13 | 4.67 | 5.22 | 5.77 | 6.34 | 1208.94
a1 = 1.394 | 3.21 | 3.73 | 4.29 | 4.87 | 5.47 | 6.08 | 6.7 | 1260.5
a1 = 1.601 | 3.11 | 3.64 | 4.2 | 4.8 | 5.42 | 6.06 | 6.7 | 1308
a1 = 1.783 | 2.89 | 3.42 | 3.99 | 4.59 | 5.22 | 5.86 | 6.53 | 1351.92

O=S(=O)([O-])[O-].[Cd+2] [cadmium sulfate] + O
Conditions | electrical conductivity, 278.15 K [S/m] | electrical conductivity, 283.15 K [S/m] | electrical conductivity, 288.15 K [S/m] | electrical conductivity, 293.15 K [S/m] | electrical conductivity, 298.15 K [S/m] | electrical conductivity, 303.15 K [S/m] | electrical conductivity, 308.15 K [S/m] | mass density, 298.15 K [kg/m3]
a1 = 0.00493 | 0.0507 | 0.0583 | 0.0658 | 0.0734 | 0.0813 | 0.0892 | 0.0972 | 998.06
a1 = 0.01043 | 0.092 | 0.105 | 0.119 | 0.132 | 0.146 | 0.16 | 0.174 | 999.18
a1 = 0.0299 | 0.209 | 0.239 | 0.269 | 0.298 | 0.328 | 0.358 | 0.387 | 1003.14
a1 = 0.0514 | 0.319 | 0.364 | 0.409 | 0.454 | 0.499 | 0.544 | 0.587 | 1007.53
a1 = 0.1001 | 0.537 | 0.612 | 0.687 | 0.761 | 0.836 | 0.91 | 0.981 | 1017.5
a1 = 0.2017 | 0.93 | 1.06 | 1.19 | 1.32 | 1.44 | 1.57 | 1.69 | 1038.74
a1 = 0.4092 | 1.61 | 1.83 | 2.05 | 2.27 | 2.49 | 2.71 | 2.92 | 1084.21
a1 = 0.6014 | 2.13 | 2.42 | 2.72 | 3.01 | 3.31 | 3.6 | 3.89 | 1129.51
a1 = 0.8202 | 2.6 | 2.97 | 3.33 | 3.7 | 4.07 | 4.43 | 4.8 | 1185.1
a1 = 1.001 | 2.96 | 3.38 | 3.79 | 4.21 | 4.63 | 5.05 | 5.47 | 1234.43
a1 = 1.209 | 3.1 | 3.56 | 4.01 | 4.47 | 4.95 | 5.42 | 5.9 | 1295.86
a1 = 1.378 | 3.16 | 3.63 | 4.11 | 4.6 | 5.1 | 5.61 | 6.12 | 1349.9
a1 = 1.486 | 3.13 | 3.62 | 4.11 | 4.61 | 5.12 | 5.65 | 6.18 | 1385.75
a1 = 1.609 | 3.04 | 3.53 | 4.02 | 4.53 | 5.06 | 5.6 | 6.14 | 1429.78
a1 = 1.798 | 2.8 | 3.28 | 3.77 | 4.28 | 4.81 | 5.36 | 5.91 | 1500.75
a1 = 1.939 | 2.53 | 2.99 | 3.46 | 3.95 | 4.47 | 5 | 5.55 | 1556.84

O=S(=O)([O-])[O-].[Zn+2] [zinc sulfate] + O
Conditions | electrical conductivity, 278.15 K [S/m] | electrical conductivity, 283.15 K [S/m] | electrical conductivity, 288.15 K [S/m] | electrical conductivity, 293.15 K [S/m] | electrical conductivity, 298.15 K [S/m] | electrical conductivity, 303.15 K [S/m] | electrical conductivity, 308.15 K [S/m] | mass density, 298.15 K [kg/m3]
a1 = 0.00628 | 0.0627 | 0.072 | 0.0816 | 0.0916 | 0.102 | 0.112 | 0.122 | 998.09
a1 = 0.02608 | 0.204 | 0.233 | 0.264 | 0.295 | 0.327 | 0.359 | 0.391 | 1001.41
a1 = 0.05064 | 0.333 | 0.382 | 0.432 | 0.483 | 0.534 | 0.585 | 0.638 | 1005.55
a1 = 0.1023 | 0.581 | 0.666 | 0.753 | 0.841 | 0.931 | 1.02 | 1.11 | 1014.14
a1 = 0.2077 | 1.02 | 1.17 | 1.32 | 1.48 | 1.63 | 1.79 | 1.94 | 1031.96
a1 = 0.4748 | 1.92 | 2.2 | 2.49 | 2.79 | 3.09 | 3.38 | 3.68 | 1078.96
a1 = 0.7453 | 2.62 | 3 | 3.4 | 3.81 | 4.23 | 4.65 | 5.07 | 1129.79
a1 = 0.9563 | 3.01 | 3.46 | 3.85 | 4.41 | 4.91 | 5.41 | 5.91 | 1171.99
a1 = 1.191 | 3.27 | 3.78 | 4.31 | 4.86 | 5.42 | 6 | 6.57 | 1221.75
a1 = 1.298 | 3.34 | 3.87 | 4.42 | 5 | 5.59 | 6.19 | 6.8 | 1250.72
a1 = 1.489 | 3.32 | 3.87 | 4.45 | 5.05 | 5.68 | 6.32 | 6.97 | 1293.66
a1 = 1.623 | 3.22 | 3.77 | 4.35 | 4.96 | 5.6 | 6.25 | 6.92 | 1326.7
a1 = 1.826 | 2.96 | 3.49 | 4.07 | 4.68 | 5.32 | 5.99 | 6.67 | 1377.89

O=S(=O)([O-])[O-].[Co+2] [cobalt(II) sulfate] + O
Conditions | electrical conductivity, 278.15 K [S/m] | electrical conductivity, 283.15 K [S/m] | electrical conductivity, 288.15 K [S/m] | electrical conductivity, 293.15 K [S/m] | electrical conductivity, 298.15 K [S/m] | electrical conductivity, 303.15 K [S/m] | electrical conductivity, 308.15 K [S/m] | mass density, 298.15 K [kg/m3]
a1 = 0.00551 | 0.0574 | 0.066 | 0.0749 | 0.084 | 0.0933 | 0.103 | 0.112 | 997.94
a1 = 0.02535 | 0.2 | 0.229 | 0.26 | 0.291 | 0.322 | 0.354 | 0.385 | 1001.16
a1 = 0.05135 | 0.338 | 0.388 | 0.439 | 0.491 | 0.544 | 0.597 | 0.649 | 1005.36
a1 = 0.1014 | 0.58 | 0.665 | 0.752 | 0.841 | 0.93 | 1.02 | 1.11 | 1013.44
a1 = 0.2522 | 1.19 | 1.36 | 1.54 | 1.72 | 1.9 | 2.09 | 2.27 | 1038.18
a1 = 0.4949 | 1.97 | 2.25 | 2.55 | 2.86 | 3.16 | 3.47 | 3.78 | 1079.59
a1 = 0.7706 | 2.63 | 3.03 | 3.43 | 3.85 | 4.27 | 4.7 | 5.12 | 1129.58
a1 = 0.9827 | 2.99 | 3.44 | 3.91 | 4.39 | 4.89 | 5.39 | 5.89 | 1170.36
a1 = 1.151 | 3.17 | 3.66 | 4.17 | 4.7 | 5.23 | 5.78 | 6.33 | 1204.34
a1 = 1.257 | 3.23 | 3.73 | 4.26 | 4.81 | 5.37 | 5.94 | 6.52 | 1227.86
a1 = 1.519 | 3.19 | 3.71 | 4.26 | 4.84 | 5.43 | 6.04 | 6.66 | 1286.2
a1 = 1.719 | 3.03 | 3.59 | 4.17 | 4.76 | 5.37 | 6 | 6.65 | 1331.86
